According to US20090023186A1, “USE OF VALPROIC ACID FOR ENHANCING PRODUCTION OF RECOMBINANT PROTEINS IN MAMMALIAN CELLS” (EXCELLGENE SA, priority 2007, published 2009):

System: HEK293E cells
Test: Stable cell lines, IgG batch titer by ELISA (Example 5)
Type: cell-based, Human
Settings: 4 mmol/l final VPA; stable mass culture; 5 days after VPA addition
Procedure: 20 million suspension-adapted HEK293E cells were resuspended in 1 ml of Ex-Cell 293 HEK 293 serum-free medium with 4 mmol/l L-glutamine (Cat. No. 14571C-1000M; Lot No. 6A0093; SAFC Biosciences, Lenexa, Kans., USA, “Ex-Cell” medium; note: “Ex-Cell” medium-as used herein-refers to a medium comprising 4 mmol/l L-glutamine) in a 50-ml filter tube each (TPP AG, Trasadingen, Switzerland; Cat. No. 87050, Lot 20050174). Then 50 μg plasmid DNA at a concentration of 1 μg/μl was added in each tube with the following composition 5% (2.5 μg) p-LC (SEQ ID NO: 1) 5% (2.5 μg) p-HC (SEQ ID NO: 3) 90% (45 μg) p-puro (SEQ ID NO: 13). Plasmid p-LC comprises the genetic information for the production of the light chain of an IgG antibody, plasmid p-HC comprises the genetic information for the production of the heavy chain of an IgG antibody, plasmid p-puro comprises the genetic information for the enzyme puromycin-N-acetyl-transferase, which is encoded by the pac gene, the puromycin resistance gene. […] In short, Goat anti-human kappa light chain IgG (Biosource) was used for coating the ELISA-plates, and with AP-conjugated goat anti-human gamma chain IgG (Biosource) the synthesized IgG1 was detected. […] Absorption was measured at 405 nm against 490 nm using a microplate reader (SPECTRAmaxTM340; Molecular Devices, Palo Alto, Calif., USA).

In the case of CCCC(CCC)C(=O)O [VPA, valproic acid], the “Batch titer HEK293E” value is reported as 47.8 ± 4.8 mg/L.
